{"source": "patent US20120157451A1", "about": "“RAF INHIBITOR COMPOUNDS AND METHODS OF USE THEREOF” (GENENTECH, INC, priority 2009, published 2012)", "key": {"V600E full-length B-Raf": {"target": "T1, V600E full-length B-Raf (Homo sapiens, UniProt P15056, V600E)", "T1 construct": "made in house; host or cells: Sf9 insect cells (baculovirus)", "T1 sequence (P15056 whole entry V600E)": "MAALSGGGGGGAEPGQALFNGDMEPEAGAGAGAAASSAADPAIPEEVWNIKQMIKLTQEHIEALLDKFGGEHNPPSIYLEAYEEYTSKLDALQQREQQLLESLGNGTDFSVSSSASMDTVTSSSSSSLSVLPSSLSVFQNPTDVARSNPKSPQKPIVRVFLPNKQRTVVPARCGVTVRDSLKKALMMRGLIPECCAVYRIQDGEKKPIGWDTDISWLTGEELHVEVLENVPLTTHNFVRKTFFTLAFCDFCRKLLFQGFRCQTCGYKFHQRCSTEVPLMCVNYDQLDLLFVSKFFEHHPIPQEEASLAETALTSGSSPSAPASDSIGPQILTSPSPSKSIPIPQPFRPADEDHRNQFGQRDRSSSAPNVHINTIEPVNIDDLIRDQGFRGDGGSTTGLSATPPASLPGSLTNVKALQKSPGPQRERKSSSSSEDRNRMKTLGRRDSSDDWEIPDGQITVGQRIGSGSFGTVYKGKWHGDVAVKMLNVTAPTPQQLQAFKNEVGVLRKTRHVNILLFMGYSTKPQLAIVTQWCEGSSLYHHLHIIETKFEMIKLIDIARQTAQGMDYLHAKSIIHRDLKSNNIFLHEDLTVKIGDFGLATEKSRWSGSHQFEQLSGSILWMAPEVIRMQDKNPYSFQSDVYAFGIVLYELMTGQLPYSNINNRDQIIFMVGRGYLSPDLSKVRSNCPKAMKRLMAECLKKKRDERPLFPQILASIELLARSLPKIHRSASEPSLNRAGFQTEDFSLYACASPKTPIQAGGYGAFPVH", "experiment": "B-Raf IC50 assay (incorporation of radiolabeled phosphate from [γ-33P]ATP into FSBA-modified wild-type MEK)", "assay_type": "biochemical", "conditions": "bound stated", "excerpt": "Determining the activity of Raf in the sample is possible by a number of direct and indirect detection methods (US 2004/0082014). Activity of human recombinant B-Raf protein may be assessed in vitro by assay of the incorporation of radio labeled phosphate to recombinant MAP kinase (MEK), a known physiologic substrate of B-Raf, according to US 2004/0127496 and WO 03/022840.\nActivity of human recombinant B-Raf protein may be assessed in vitro by assay of the incorporation of radio labeled phosphate to recombinant MAP kinase (MEK), a known physiologic substrate of B-Raf, according to US 2004/0127496 and WO 03/022840. Catalytically active human recombinant B-Raf protein is obtained by purification from sf9 insect cells infected with a human B-Raf recombinant baculovirus expression vector.\nIncubations were carried out at 22° C. in a Costar 3365 plate (Corning). Prior to the assay, the B-Raf and FSBA-MEK were preincubated together in assay buffer at 1.5× (20 μL of 30 nM and 1.5 μM, respectively) for 15 minutes, and the assay was initiated by the addition of 10 μL of 10 μM ATP. Following the 60-minute incubation, the assay mixtures were quenched by the addition of 100 μL of 25% TCA, the plate was mixed on a rotary shaker for 1 minute, and the product was captured on a Perkin-Elmer GF/B filter plate using a Tomtec Mach III Harvester. After sealing the bottom of the plate, […] of Bio-Safe II (Research Products International) scintillation cocktail were added to each well and the plate was top-sealed and counted in a Topcount NXT (Packard)."}, "[1]": {"system": "basal ERK1/2 phosphorylation in Malme-3M cells", "experiment": "Cellular ERK 1/2 phosphorylation assay", "assay_type": "cell-based", "conditions": "Homo sapiens, 1 hour incubation, pERK normalized to total ERK, representative data of multiple tests", "method": "Inhibition of basal ERK1/2 phosphorylation was determined by the following in vitro […], which comprises incubating cells with a compound of Formula I for 1 hour and quantifying the fluorescent pERK signal on fixed cells and normalizing to total ERK signal.\nMaterials and Methods: Malme-3M cells were obtained from ATCC and grown in RPMI-1640 supplemented with 10% fetal bovine serum. Cells were plated in 96-well plates at 24,000 cells/well and allowed to attach for 16-20 hours at 37° C., 5% CO2. The media was removed, and DMSO-diluted compounds were added in RPMI-1640 at a final concentration of 1% DMSO. The cells were incubated with the compounds for 1 hour at 37° C., 5% CO2. The cells were washed with PBS and fixed in 3.7% formaldehyde in PBS for 15 minutes. This was followed by washing in PBS/0.05% Tween20 and permeabilizing in −20° C. 100% MeOH for 15 minutes. Cells were washed in PBS/0.05% Tween20 then blocked in Odyssey blocking buffer (LI-COR Biosciences) for 1 hour. Antibodies to phosphorylated ERK (1:400, Cell Signaling #9106, monoclonal) and total ERK (1:400, Santa Cruz Biotechnology #sc-94, polyclonal) were added to the cells and incubated 16-20 hours at 4° C. After washing with PBS/0.05% Tween20, the cells were incubated with fluorescently-labeled secondary antibodies (1:1000 goat anti-rabbit IgG-IRDye800, Rockland and 1:500 goat anti-mouse IgG-Alexa Fluor 680, Molecular Probes) for an additional hour. Cells were then washed and analyzed for fluorescence at both wavelengths using the Odyssey Infrared Imaging System (LI-COR Biosciences). Phosphorylated ERK signal was normalized to total ERK signal."}}, "data": [{"smiles": "CCCS(=O)(=O)Nc1ccc(F)c(C(=O)Nc2cnc3cc(C4CC4)nn3c2)c1F", "note": "[Example 28, N-(2-cyclopropylpyrazolo [1,5-a]pyrimidin-6-yl)-2,6-difluoro-3-(propylsulfonamido) benzamide]", "values": [{"measurement": "IC50", "setting": "V600E full-length B-Raf", "value": "< 150", "unit": "nM"}]}, {"smiles": "CCCS(=O)(=O)Nc1ccc(F)c(C(=O)Nc2cnc3cc(CC)nn3c2)c1F", "note": "[Example 29, N-(2-ethylpyrazolo[1,5-a]pyrimidin-6-yl)-2,6-difluoro-3-(propylsulfonamido) benzamide]", "values": [{"measurement": "IC50", "setting": "V600E full-length B-Raf", "value": "< 150", "unit": "nM"}]}, {"smiles": "CCCS(=O)(=O)Nc1ccc(F)c(C(=O)Nc2cnc3cc(C4CCNCC4)nn3c2)c1F", "note": "[Example 4, 2,6-difluoro-N-(2-(piperidin-4-yl)pyrazolo[1,5-a]pyrimidin-6-yl)-3-(propylsulfonamido)benzamide]", "values": [{"measurement": "IC50", "setting": "V600E full-length B-Raf", "value": "< 300", "unit": "nM"}]}, {"smiles": "CCCS(=O)(=O)Nc1ccc(F)c(C(=O)Nc2cnc3cc(-c4ccc(C)cc4)nn3c2)c1F", "note": "[Example 8, 2,6-difluoro-3-(propylsulfonamido)-N-(2-p-tolylpyrazolo[1,5-a]pyrimidin-6-yl)benzamide]", "values": [{"measurement": "IC50", "setting": "V600E full-length B-Raf", "value": "< 150", "unit": "nM"}]}, {"smiles": "CCCS(=O)(=O)Nc1ccc(F)c(C(=O)Nc2cnc3cc(-c4cnn(CCO)c4)nn3c2)c1F", "note": "[Example 13, 2,6-difluoro-N-(2-(1-(2-hydroxyethyl)-1H-pyrazol-4-yl)pyrazolo[1,5-a]pyrimidin-6-yl)-3-(propylsulfonamido)benzamide]", "values": [{"measurement": "IC50", "setting": "V600E full-length B-Raf", "value": "< 150", "unit": "nM"}]}, {"smiles": "COc1cc2ncc(NC(=O)c3c(F)ccc(NS(=O)(=O)CC(C)C)c3F)cn2n1", "note": "[Example 25, 2,6-difluoro-N-(2-methoxypyrazolo [1,5-a]pyrimidin-6-yl)-3-(2-methylpropyl-sulfonamido) benzamide]", "values": [{"measurement": "IC50", "setting": "V600E full-length B-Raf", "value": "< 150", "unit": "nM"}]}, {"smiles": "CCCS(=O)(=O)Nc1ccc(F)c(C(=O)Nc2cnc3cc(OCCO)nn3c2)c1F", "note": "[Example 15, 2,6-difluoro-N-(2-(2-hydroxyethoxy)pyrazolo[1,5-a]pyrimidin-6-yl)-3-(propylsulfonamido)benzamide]", "values": [{"measurement": "IC50", "setting": "V600E full-length B-Raf", "value": "< 150", "unit": "nM"}]}, {"smiles": "CCCS(=O)(=O)Nc1ccc(F)c(C(=O)Nc2cnc3cc(C)nn3c2)c1F", "note": "[Example 26, 2,6-difluoro-N-(2-methylpyrazolo [1,5-a]pyrimidin-6-yl)-3-(propylsulfonamido) benzamide]", "values": [{"measurement": "IC50", "setting": "V600E full-length B-Raf", "value": "< 150", "unit": "nM"}]}, {"smiles": "CCCS(=O)(=O)Nc1ccc(F)c(C(=O)Nc2cnc3cc(C(F)(F)F)nn3c2)c1F", "note": "[Example 32, 2,6-difluoro-3-(propylsulfonamido)-N-(2-(trifluoromethyl)pyrazolo[1,5-a]pyrimidin-6-yl)benzamide]", "values": [{"measurement": "IC50", "setting": "V600E full-length B-Raf", "value": "< 150", "unit": "nM"}]}, {"smiles": "CCCS(=O)(=O)Nc1ccc(F)c(C(=O)Nc2cnc3cc(C4CCCC4)nn3c2)c1F", "note": "[Example 30, N-(2-cyclopentylpyrazolo [1,5-a]pyrimidin-6-yl)-2,6-difluoro-3-(propylsulfonamido) benzamide]", "values": [{"measurement": "IC50", "setting": "V600E full-length B-Raf", "value": "< 150", "unit": "nM"}]}, {"smiles": "CCCS(=O)(=O)Nc1ccc(F)c(C(=O)Nc2cnc3cc(OC(C)C)nn3c2)c1F", "note": "[Example 2, 2,6-difluoro-N-(2-isopropoxypyrazolo[1,5-a]pyrimidin-6-yl)-3-(propylsulfonamido)benzamide]", "values": [{"measurement": "IC50", "setting": "V600E full-length B-Raf", "value": "< 150", "unit": "nM"}]}, {"smiles": "COc1cc2ncc(NC(=O)c3c(F)ccc(NS(=O)(=O)CCCF)c3F)cn2n1", "note": "[Example 21, 2,6-difluoro-3-(3-fluoropropyl-sulfonamido)-N-(2-methoxypyrazolo [1,5-a]pyrimidin-6-yl)benzamide]", "values": [{"measurement": "IC50", "setting": "V600E full-length B-Raf", "value": "< 150", "unit": "nM"}]}, {"smiles": "CCCS(=O)(=O)Nc1ccc(Cl)c(C(=O)Nc2cnc3cc(OC)nn3c2)c1F", "note": "[Example 19, 6-chloro-2-fluoro-N-(2-methoxypyrazolo [1,5-a]pyrimidin-6-yl)-3-(propylsulfonamido) benzamide]", "values": [{"measurement": "IC50", "setting": "V600E full-length B-Raf", "value": "< 150", "unit": "nM"}]}, {"smiles": "CCCS(=O)(=O)Nc1ccc(F)c(C(=O)Nc2cnc3cc(SC)nn3c2)c1F", "note": "[Example 14, 2,6-difluoro-N-(2-(methylthio)pyrazolo[1,5-a]pyrimidin-6-yl)-3-(propylsulfonamido)benzamide]", "values": [{"measurement": "IC50", "setting": "V600E full-length B-Raf", "value": "< 150", "unit": "nM"}]}, {"smiles": "CCCS(=O)(=O)Nc1ccc(F)c(C(=O)Nc2cnc3cc(NC)nn3c2)c1F", "note": "[Example 35, 2,6-difluoro-N-(2-(methylamino)pyrazolo[1,5-a]pyrimidin-6-yl)-3-(propylsulfonamido) benzamide]", "values": [{"measurement": "IC50", "setting": "V600E full-length B-Raf", "value": "< 150", "unit": "nM"}]}, {"smiles": "CCCS(=O)(=O)Nc1ccc(F)c(C(=O)Nc2cnc3cc(-c4cccc(F)c4)nn3c2)c1F", "note": "[Example 9, 2,6-difluoro-N-(2-(3-fluorophenyl)pyrazolo[1,5-a]pyrimidin-6-yl)-3-(propylsulfonamido)benzamide]", "values": [{"measurement": "IC50", "setting": "V600E full-length B-Raf", "value": "< 150", "unit": "nM"}]}, {"smiles": "CCCS(=O)(=O)Nc1ccc(F)c(C(=O)Nc2cnc3cc(-c4cnn(C)c4)nn3c2)c1F", "note": "[Example 12, 2,6-difluoro-N-(2-(1-methyl-1H-pyrazol-4-yl)pyrazolo[1,5-a]pyrimidin-6-yl)-3-(propylsulfonamido)benzamide]", "values": [{"measurement": "IC50", "setting": "V600E full-length B-Raf", "value": "< 150", "unit": "nM"}]}, {"smiles": "CCCS(=O)(=O)Nc1ccc(Cl)c(C(=O)Nc2cnc3cc(-c4ccccc4)nn3c2)c1F", "note": "[Example 33, 6-chloro-2-fluoro-N-(2-phenylpyrazolo [1,5-a]pyrimidin-6-yl)-3-(propylsulfonamido) benzamide]", "values": [{"measurement": "IC50", "setting": "V600E full-length B-Raf", "value": "< 150", "unit": "nM"}]}, {"smiles": "CCCS(=O)(=O)Nc1ccc(F)c(C(=O)Nc2cnc3cc(OCCOC)nn3c2)c1F", "note": "[Example 16, 2,6-difluoro-N-(2-(2-methoxyethoxy)pyrazolo[1,5-a]pyrimidin-6-yl)-3-(propylsulfonamido)benzamide]", "values": [{"measurement": "IC50", "setting": "V600E full-length B-Raf", "value": "< 150", "unit": "nM"}]}, {"smiles": "CCCS(=O)(=O)Nc1ccc(F)c(C(=O)Nc2cnc3cc(N4CCOCC4)nn3c2)c1F", "note": "[Example 36, 2,6-difluoro-N-(2-morpholinopyrazolo [1,5-a]pyrimidin-6-yl)-3-(propylsulfonamido) benzamide]", "values": [{"measurement": "IC50", "setting": "V600E full-length B-Raf", "value": "< 300", "unit": "nM"}]}, {"smiles": "CCCS(=O)(=O)Nc1ccc(F)c(C(=O)Nc2cnc3cc(NC(C)C)nn3c2)c1F", "note": "[Example 18, 2,6-difluoro-N-(2-(isopropylamino)pyrazolo[1,5-a]pyrimidin-6-yl)-3-(propylsulfonamido)benzamide]", "values": [{"measurement": "IC50", "setting": "V600E full-length B-Raf", "value": "< 300", "unit": "nM"}]}, {"smiles": "CCCS(=O)(=O)Nc1ccc(F)c(C(=O)Nc2cnc3cc(-c4ccccc4)nn3c2)c1F", "note": "[Example 5, 2,6-difluoro-N-(2-phenylpyrazolo[1,5-a]pyrimidin-6-yl)-3-(propylsulfonamido)benzamide]", "values": [{"measurement": "IC50", "setting": "[1]", "value": 13.9, "unit": "nM"}]}, {"smiles": "CCCS(=O)(=O)Nc1ccc(F)c(C(=O)Nc2cnc3ccnn3c2)c1F", "note": "[Example 27, 2,6-difluoro-3-(propylsulfonamido)-N-(pyrazolo[1,5-a]pyrimidin-6-yl)benzamide]", "values": [{"measurement": "IC50", "setting": "V600E full-length B-Raf", "value": "< 300", "unit": "nM"}]}, {"smiles": "CCCS(=O)(=O)Nc1ccc(F)c(C(=O)Nc2cnc3cc(OCC)nn3c2)c1F", "note": "[Example 3, N-(2-ethoxypyrazolo[1,5-a]pyrimidin-6-yl)-2,6-difluoro-3-(propylsulfonamido)benzamide]", "values": [{"measurement": "IC50", "setting": "V600E full-length B-Raf", "value": "< 150", "unit": "nM"}]}, {"smiles": "CCCS(=O)(=O)Nc1ccc(F)c(C(=O)Nc2cnc3cc(C4CCOC4)nn3c2)c1F", "note": "(stereo not shown) [Example 31, 2,6-difluoro-3-(propylsulfonamido)-N-(2-(tetrahydrofuran-3-yl)pyrazolo[1,5-a]pyrimidin-6-yl)benzamide]", "values": [{"measurement": "IC50", "setting": "V600E full-length B-Raf", "value": "< 300", "unit": "nM"}]}, {"smiles": "CCCS(=O)(=O)Nc1ccc(F)c(C(=O)Nc2cnc3cc(-c4ccc(Cl)cc4)nn3c2)c1F", "note": "[Example 6, N-(2-(4-chlorophenyl)pyrazolo[1,5-a]pyrimidin-6-yl)-2,6-difluoro-3-(propylsulfonamido)benzamide]", "values": [{"measurement": "IC50", "setting": "V600E full-length B-Raf", "value": "< 150", "unit": "nM"}]}, {"smiles": "CCCS(=O)(=O)Nc1ccc(F)c(C(=O)Nc2cnc3cc(-c4ccc(F)cc4)nn3c2)c1F", "note": "[Example 7, 2,6-difluoro-N-(2-(4-fluorophenyl)pyrazolo[1,5-a]pyrimidin-6-yl)-3-(propylsulfonamido)benzamide]", "values": [{"measurement": "IC50", "setting": "V600E full-length B-Raf", "value": "< 150", "unit": "nM"}]}, {"smiles": "CCCS(=O)(=O)Nc1ccc(F)c(C(=O)Nc2cnc3cc(OC)nn3c2)c1Cl", "note": "[Example 20, 2-chloro-6-fluoro-N-(2-methoxypyrazolo [1,5-a]pyrimidin-6-yl)-3-(propylsulfonamido) benzamide]", "values": [{"measurement": "IC50", "setting": "V600E full-length B-Raf", "value": "< 150", "unit": "nM"}]}]}
